According to patent publication US10543189B2, “2-acetylnaphtho[2,3-b]furan -4,9-dione for use on treating cancer” (Boston Biomedical, Inc., priority 2013, dated 2020):
Several values for one entry are separate records, joined by “and”; a condition that tells them apart may be missing. Identical values can stand only once.

Assays:
[1] = Safety of highly pure Compound 1 in animal experiments; format: in vivo; details: highly pure Compound 1, mice
Method: For example, FIG. 13 of WO 2011/116398 and WO 2011/116399 illustrates the toxicity observed with a composition with about 90% purity for Compound 1, while FIG. 14 of WO 2011/116398 and WO 2011/116399 illustrates that the highly pure compositions having about 95% or greater purity for Compound 1 are safe and effective. In a Phase 1 study, the dose of Compound 1 was escalated from 20 mg to 2000 mg/day, and a maximum tolerated dose (MTD) not reached. […] The clinical safety profile of the substantially pure compositions of Compound 1 is among the best for oncology drugs in history.

[2] = tested on: solid tumor that is metastatic, unresectable, or recurrent; test: Phase I dose escalation trial: preliminary antitumor activity; format: in vivo, human
Method: Each cycle consists of twice-daily oral administration of the compound for 4 weeks. Cycles were repeated every 4 weeks (28 days) until progression of disease, unacceptable toxicity, or another discontinuation criterion is met. The dose escalation trial was conducted as open label and multicenter trial. A modified Simon accelerated titration scheme was used for dose escalation.
The primary objective of the trial was to determine the safety, tolerability, and recommended phase II dose (RP2D). The secondary objectives of the trial were to determine the pharmacokinetic profile of the compound, pharmacodynamics of the compound, and preliminary antitumor activity of the compound.
The inclusion criteria included histologically or cytologically confirmed solid tumor that is metastatic, unresectable, or recurrent; >18 years of age; Measurable disease by RECIST; and Kamofsky ≥70%. The exclusion criteria included chemotherapy, radiotherapy, immunotherapy or investigational agent within 4 weeks of first dose; surgery within 4 weeks of first dose; and known brain metastases.

[3] = Pharmacokinetics when taken fasting, with milk or with food; format: in vivo, human; details: for Tmax: human, in vivo, oral
Method: In yet another suitable dosing regimen, Compound 1 was administered with a fluid, e.g., a milk or water, with empty stomach which improves pharmacokinetical exposure (Table 12). Counterintuitively, milk helped patients with gastrointestinal adverse effects.
In yet another suitable dosing regimen, Compound 1 was administered with food which delayed the Tmax (Table 13).

[4] = tested on: β-catenin; test: β-catenin protein levels in cancer cell lines; format: cell-based; details: in vitro within cancer cell lines
Text: Understanding the clinical relevance of the cancer stemness markers and identifying their predictive response to the Compound of the Invention is used herein to assist clinical development by selecting patients that will most likely to derive clinical benefit. In some embodiments, the methods provided herein use one or more well-known cancer stemness marker(s), such as, for example, the expression of p-STAT3 and/or other cancer stem cell related proteins such as β-catenin and NANOG. All these proteins can be easily detected using any of a variety of art-recognized techniques. In some embodiments, the cancer sternness marker is detected with immunohistochemistry with antibodies. Using the archival tissue samples collected from the phase I trial with the Compound of the Invention, the patient response to the Compound of the Invention was analyzed based on biomarker status. […] A significant improvement in survival was detected for patients with nuclear β-Catenin localization compared with patients having β-catenin localized to the cell membrane, HR=0.043, p value <0.001. As further evidence, in an in vitro study screening a panel of cancer cells, the cell lines with nuclear β-Catenin show a lower IC50 for the Compound of the Invention. […] Thus, STAT3 activation is involved in nuclear β-catenin regulation. […]

[5] = Total Daily Dose 20 mg, Colon adencarcinoma
[6] = Total Daily Dose 400 mg, Colon adenocarcinoma
[7] = Total Daily Dose 400 mg, Ovarian carcinoma
[8] = Total Daily Dose 500 mg, Breast carcinoma (triple negative)

CC(=O)c1cc2c(o1)C(=O)c1ccccc1C2=O [Compound 1, 2-acetylnaphtho[2,3-b]furan-4,9-dione]
adverse effects [1]: No signs of any adverse effects
antitumor activity in a kidney with colon cancer lesions ([2]; 20 mg QD, very high concentration of the drug in urine): signs of particularly potent antitumor activity
regression of a colon cancer metastatic lesion to kidney ([2]; Patient 0001): complete regression
disease control (disease stabilization and tumor regression), patients evaluable for tumor response ([2]; Phase I, tumors refractory to chemotherapies): 65%
Weeks on Study [2, 5]: 76 weeks
regression [2, 5]: 22%
Weeks on Study ([2]; Total Daily Dose 80 mg, Head and fleck carcinoma): 17 weeks
Weeks on Study ([2]; Total Daily Dose 320 mg, Colon adenocarcinoma (two patients)): 24 weeks and 12 weeks
CEA [2, 6]: 50%
Weeks on Study [2, 6]: 11 weeks
Weeks on Study ([2]; Total Daily Dose 400 mg, Gastric adenocarcinoma): 19 weeks
CA125 [2, 7]: CA125 normalization
Weeks on Study [2, 7]: 16 weeks
Weeks on Study [2, 8]: 29 weeks
outcome after surgical resection of remaining hollowed lesion [2, 8]: resected; patient disease free)
Weeks on Study ([2]; Total Daily Dose 800 mg, Chondrosarocoma): 13 weeks
Weeks on Study ([2]; Total Daily Dose 1000 mg, Adrenocarticoid carcinoma): 17 weeks
Weeks on Study ([2]; Total Daily Dose 1000 mg, Colon: adencarcinoma): 16 weeks
Weeks on Study ([2]; Total Daily Dose 1400 mg, Melanona): 16 weeks
Tmax ([3]; Patient 20, Fasting): 2 h
Tmax ([3]; Patient 20, With Food): 8 h
Tmax ([3]; Patient 20, With Milk): 2 h
Tmax ([3]; Patient 21, Fasting): 6 h
Tmax ([3]; Patient 21, With Food): 6 h
Tmax ([3]; Patient 21, With Milk): 6 h
Tmax ([3]; Patient 22, Fasting): 8 h
Tmax ([3]; Patient 22, With Food): 10 h
Tmax ([3]; Patient 22, With Milk): 8 h
Tmax ([3]; Patient 24, With Food): 10 h
Tmax ([3]; Patient 24, With Milk): 6.3 h
Tmax ([3]; Patient 27, With Food): 6 h
Tmax ([3]; Patient 27, With Milk): 0.5 h
Tmax ([3]; Patient 28, With Food): 10 h
Tmax ([3]; Patient 28, With Milk): 6 h
AUC0-24hrs Fold Change ([3]; with Milk versus Fasting): 1.56 and 1.55
Cmax Fold Change ([3]; with Milk versus Fasting): 1.52 and 1.13
β-catenin protein levels [4]: reduced
